# Measurements as given in US8697694B2, “Substituted pyridine and pyrimidine derivatives and their use in treating viral infections” (priority 2008, dated 2014).
# System: HCV replicon cells
# Assay: Cell-based HCV replicon assay (replicon RNA level by real time PCR, Taqman)
# Details: Hepatitis C virus, 72 h, HCV replicon cells, harvested day 3, replicon RNA by real time PCR; given as number; read-out: EC90 (μM) range
# Procedure, shortened: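 Readout: ΔCT between NS5B replicon RNA and GAPDH by real-time RT-PCR in lysates harvested on day 3, fitted sigmoidally; EC50 at ΔCT=1, EC90 at ΔCT=3.2. Compounds tested at ten 2-fold dilutions from 25 μM to 1 μM start, 10% FBS, 0.5% DMSO.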
row,SMILES,EC90
1,Cc1nc(NCC(F)(F)F)nc(N[C@@H]2CC[C@@H](O)C2)c1-c1nc2ccccc2s1 [Example 54],1 µM
2,CCCOc1cc2cc(-c3c(C)nc(NCC(F)(F)F)nc3N[C@@H]3C[C@H](CO)[C@@H](O)[C@H]3O)oc2c(C)n1 [Example 34],0.1 µM
3,CCC(CC)Oc1cc2cc(-c3c(C)nc(NCCOC)nc3N[C@@H]3C[C@H](CO)[C@@H](O)[C@H]3O)oc2c(C)n1 [Example 48],> 25 µM
4,Cc1nc(NCC(F)(F)F)nc(N[C@@H]2C[C@H](COC(=O)N3CCCC3)[C@@H](O)[C@H]2O)c1-c1nc2ccccc2s1 [Example 64],0.8 µM
5,CCOc1cc2cc(-c3c(C)nc(NCc4c(F)cccc4F)nc3N[C@@H]3C[C@H](CO)[C@@H](O)[C@H]3O)oc2c(C)n1 [Example 50],0.05 µM
6,CCOc1cc2cc(-c3c(C)nc(NCc4nccs4)nc3N[C@@H]3C[C@H](CO)[C@@H](O)[C@H]3O)oc2c(C)n1 [Example 24],0.02 µM

# Same assay, conditions: Hepatitis C virus, 72 h, HCV replicon cells, harvested day 3, replicon RNA by real time PCR; reported as range class; read-out: EC90 (μM) range
row,SMILES,EC90
1,Nc1nc(Cl)c(-c2nc3ccccc3o2)c(N[C@@H]2C[C@H](CO)[C@@H](O)[C@H]2O)n1 [Example 109],< 0.5 µM
2,CN(C)C(=O)c1ccc2oc(-c3c(Cl)nc(N)nc3N[C@@H]3C[C@H](CO)[C@@H](O)[C@H]3O)cc2c1 [Example 168],> 5 µM
3,CCCOCCNc1nc(Cl)c(-c2nc3ccccc3s2)c(N[C@@H]2C[C@H](CO)[C@@H](O)[C@H]2O)n1 [Example 226],< 0.5 µM
4,COCCCNc1nc(Cl)c(-c2nc3ccccc3s2)c(N[C@@H]2C[C@H](CO)[C@@H](O)[C@H]2O)n1 [Example 222],< 0.5 µM
5,COCCNc1nc(Cl)c(-c2cc3cc(OC)nc(C)c3o2)c(N[C@@H]2C[C@H](CO)[C@@H](O)[C@H]2O)n1 [Example 18],< 0.5 µM
6,CNc1nc(Cl)c(-c2cc3cc(OC)nc(C)c3o2)c(N[C@@H]2C[C@H](CO)[C@@H](O)[C@H]2O)n1 [Example 15],< 0.5 µM
7,CNc1ccc2nc(-c3c(Cl)nc(N)nc3N[C@@H]3C[C@H](CO)[C@@H](O)[C@H]3O)sc2c1 [Example 196],< 0.5 µM
8,Cc1nc(N(C)C)nc(N[C@@H]2C[C@H](CO)[C@@H](O)[C@H]2O)c1-c1nc2ccccc2s1 [Example 313],< 0.5 µM
9,CCOc1ccc2nc(-c3c(C)nc(N(C)C)nc3N[C@@H]3C[C@H](CO)[C@@H](O)[C@H]3O)sc2c1 [Example 207],> 5 µM
10,CC(C)CNc1nc(Cl)c(-c2nc3ccccc3s2)c(N[C@@H]2C[C@H](CO)[C@@H](O)[C@H]2O)n1 [Example 320],< 0.5 µM
11,COCCN(C)c1nc(Cl)c(-c2nc3ccccc3s2)c(N[C@@H]2C[C@H](CO)[C@@H](O)[C@H]2O)n1 [Example 202],0.5 to 5 µM
12,NC(=O)c1ccc2oc(-c3c(Cl)nc(N)nc3N[C@@H]3C[C@H](CO)[C@@H](O)[C@H]3O)cc2c1 [Example 173],> 5 µM

# Same assay, conditions: Hepatitis C virus, 72 h, HCV replicon cells, harvested on day 3, replicon RNA by real time PCR; calculated EC90 reported as range class; read-out: EC90 (μM) range
row,SMILES,EC90
1,CCOCCNc1nc(C)c(-c2nc3cc(NC)ccc3s2)c(N[C@@H]2C[C@H](CO)[C@@H](O)[C@H]2O)n1 [Example 259],< 0.5 µM
2,Cc1nc(NCc2cccc(C(F)(F)F)c2)nc(N[C@@H]2C[C@H](CO)[C@H]3OC(C)(C)O[C@H]32)c1-c1nc2ccccc2s1 [Example 237],0.5 to 5 µM
3,CCCNc1nc(C)c(-c2nc3ccccc3s2)c(N[C@@H]2C[C@H](CO)[C@@H](O)[C@H]2O)n1 [Example 422],< 0.5 µM
4,Cc1cc(C)cc(CNc2nc(C)c(-c3nc4ccccc4s3)c(N[C@@H]3C[C@H](CO)[C@H]4OC(C)(C)O[C@H]43)n2)c1 [Example 712],< 0.5 µM
5,Cc1cc2cc(-c3c(C)nc(NCC4CCCCC4)nc3N[C@@H]3C[C@H](CO)[C@@H](O)[C@H]3O)oc2c(C)n1 [Example 461],< 0.5 µM
6,Cc1nc(NCc2cccs2)nc(N[C@@H]2CCCC2=O)c1-c1nc2ccccc2s1 (racemic) [Example 338],< 0.5 µM
7,Cc1cccc(CNc2nc(C)c(-c3nc4ccccc4s3)c(N[C@@H]3C[C@H](CO)[C@@H](O)[C@H]3O)n2)c1 [Example 486],< 0.5 µM
8,Cc1nc(NCC2CC2)nc(N[C@@H]2C[C@H](CO)[C@@H](O)[C@H]2O)c1-c1nc2ccccc2s1 [Example 505],< 0.5 µM
9,CCc1cc2cc(-c3c(C)nc(NCc4cc(C)on4)nc3N[C@@H]3C[C@H](CO)[C@H]4OC(C)(C)O[C@H]43)oc2cn1 [Example 702],< 0.5 µM
10,Cc1csc(CNc2nc(C)c(-c3nc4ccccc4s3)c(N[C@@H]3C[C@H](CO)[C@@H](O)[C@H]3O)n2)c1 [Example 480],< 0.5 µM
11,CO[C@H](C)CNc1nc(Cl)c(-c2nc3ccccc3s2)c(N[C@@H]2C[C@H](CO)[C@@H](O)[C@H]2O)n1 [Example 230],< 0.5 µM
12,Cc1nc(NCc2cccc(F)c2)nc(N[C@@H]2C[C@H](CO)[C@@H](O)[C@H]2O)c1-c1nc2ccccc2s1 [Example 244],< 0.5 µM
13,CCc1cc2cc(-c3c(C)nc(NCC(F)(F)F)nc3N[C@@H]3C[C@H](CO)[C@@H](O)[C@H]3O)oc2cn1 [Example 517],< 0.5 µM
14,CCc1cc2cc(-c3c(C)nc(NCc4ccccn4)nc3N[C@@H]3C[C@H](CO)[C@H]4OC(C)(C)O[C@H]43)oc2cn1 [Example 343],> 5 µM

# Same assay, conditions: Hepatitis C virus, 72 h, HCV replicon cells, replicon RNA level by real time PCR (Taqman), day 3; calculated EC90; read-out: EC90 (μM) range
row,SMILES,EC90
1,COc1cc(CCNc2nc(C)c(-c3nc4cnccc4s3)c(N[C@@H]3C[C@H](CO)[C@H]4OC(C)(C)O[C@H]43)n2)cc(OC)c1 [Example 2009],< 0.5 µM

# Same assay, conditions: Hepatitis C virus, 72 h, HCV replicon cells, replicon RNA level by real time PCR (Taqman), harvested on day 3; calculated EC90 reported as range class; read-out: EC90 (μM) range
row,SMILES,EC90
1,Cc1nc(NCc2cccc(CN(C)C)c2)nc(N[C@@H]2C[C@H](CO)[C@H]3OC(C)(C)O[C@H]32)c1-c1nc2ccccc2s1 [Example 1118],> 5 µM
2,Cc1nc(NCc2nccs2)nc(N[C@@H]2C[C@H](CO)[C@@H](O)[C@H]2O)c1-c1nc2cnccc2s1 [Example 541],< 0.5 µM
3,Cc1nc(NCc2cccc(N)c2)nc(N[C@@H]2C[C@H](CO)[C@H]3OC(C)(C)O[C@H]32)c1-c1nc2ccccc2s1 [Example 1111],0.5 to 5 µM
4,Cc1ccc(C2(Nc3nc(C)c(-c4nc5cnccc5s4)c(N[C@@H]4C[C@H](CO)[C@@H](O)[C@H]4O)n3)CC2)cc1 [Example 1315],0.5 to 5 µM
5,COc1ccc(CNc2nc(C)c(-c3nc4ccccc4s3)c(N[C@@H]3CC[C@@H](O)[C@H]3O)n2)cc1OC [Example 1205],0.5 to 5 µM
6,COCCNC[C@H]1C[C@@H](Nc2nc(NCC(F)(F)F)nc(C)c2-c2nc3ccccc3s2)[C@H](O)[C@@H]1O [Example 1069],0.5 to 5 µM
7,Cc1nc(NCc2cccs2)nc(N2CCC[C@H]2CO)c1-c1nc2ccccc2s1 [Example 1224],> 5 µM
8,Cc1nc(NCC(F)(F)F)nc(N[C@@H]2C[C@H](CN3CCCC3)[C@@H](O)[C@H]2O)c1-c1nc2ccccc2s1 [Example 1017],0.5 to 5 µM
9,COCCCCNc1nc(C)c(-c2nc3ccccc3s2)c(N[C@@H]2C[C@H](CO)[C@@H](O)[C@H]2O)n1 [Example 1048],< 0.5 µM
10,Cc1nc(NCc2cc(Cl)cc(Cl)c2)nc(N[C@@H]2C[C@H](CO)[C@H]3OC(C)(C)O[C@H]32)c1-c1nc2ccccc2s1 [Example 1113],0.5 to 5 µM
11,Cc1nc(NCC2CC2)nc(N[C@@H]2C[C@H](CO)[C@@H](O)[C@@H]2O)c1-c1nc2ccccc2s1 [Example 1252],> 5 µM
12,Cc1cnc(CNc2nc(C)c(-c3nc4ccccc4s3)c(N[C@@H]3C[C@H](CO)[C@@H](O)[C@H]3O)n2)s1 [Example 1204],< 0.5 µM
13,CCOc1nc(C)cc2cc(-c3c(C)nc(NC(C)c4ccc(C)cc4)nc3N[C@@H]3C[C@H](CO)[C@@H](O)[C@H]3O)oc12 (some centres unmarked) [Example 1249],0.5 to 5 µM

# Same assay, conditions: Hepatitis C virus, 72 h, HCV replicon cells, replicon RNA level by real time PCR, harvested day 3; read-out: EC90 (μM) range
row,SMILES,EC90
1,Cc1nc(N[C@H](C)C(F)(F)F)nc(N[C@@H]2C[C@H](CO)[C@@H](O)[C@H]2O)c1-c1nc2ccccc2s1 [Example 1623],0.5 to 5 µM
2,C=CCNc1nc(C)c(C2=NC3=C=CC=CC3S2)c(N[C@@H]2C[C@H](CO)[C@@H](O)[C@H]2O)n1 (some centres unmarked) [Example 1906],0.5 to 5 µM
3,COc1ccc(CCNc2nc(C)c(-c3nc4cnccc4s3)c(N[C@@H]3C[C@H](CO)[C@@H](O)[C@H]3O)n2)cc1Cl [Example 1913],0.5 to 5 µM
4,Cc1nc(N[C@@H](c2ccsc2)C(F)(F)F)nc(N[C@@H]2C[C@H](CO)[C@@H](O)[C@H]2O)c1-c1nc2c(C)nccc2s1 [Example 1361],< 0.5 µM
5,Cc1nc(NCC(F)(F)F)nc(N[C@@H]2C[C@H](CN(C)S(C)(=O)=O)[C@@H](O)[C@H]2O)c1-c1nc2ccccc2s1 [Example 1379],< 0.5 µM
6,COc1nc(C)c(-c2nc3ccccc3s2)c(N[C@@H]2C[C@H](CO)[C@@H](O)[C@H]2O)n1 [Example 1907],0.5 to 5 µM
7,Cc1nc(NCCc2cccs2)nc(N[C@@H]2C[C@H](CO)[C@@H](O)[C@H]2O)c1-c1nc2ccccc2s1 [Example 1805],< 0.5 µM
8,Cc1nc(N[C@H](C)C2CC2)nc(N[C@@H]2C[C@@H](C(C)O)[C@@H](O)[C@H]2O)c1-c1nc2cnccc2s1 (some centres unmarked) [Example 1651],< 0.5 µM
9,Cc1ccc([C@@H](C)Nc2nc(C)c(-c3nc4c(CC(C)C)nccc4s3)c(N[C@@H]3C[C@H](CO)[C@@H](O)[C@H]3O)n2)cc1 [Example 1372],< 0.5 µM
10,Cc1nc(NCC(F)(F)F)nc(N[C@@H]2CC[C@@H](O)[C@@]2(C)O)c1-c1nc2c(C)nccc2s1 [Example 1816],< 0.5 µM
11,Cc1nc(N[C@H](C)c2cccc(F)c2)nc(N[C@@H]2C[C@H](CO)[C@@H](O)[C@H]2O)c1-c1nc2c(C)nccc2s1 [Example 1524],< 0.5 µM
12,CC(=O)NC[C@H]1C[C@@H](Nc2nc(NCC(F)(F)F)nc(C)c2-c2nc3ccccc3s2)[C@H](O)[C@@H]1O [Example 1506],0.5 to 5 µM
13,Cc1nc(O)nc(N[C@@H]2C[C@H](CO)[C@@H](O)[C@H]2O)c1-c1nc2ccccc2s1 [Example 1605],> 5 µM
